Assay results taken from patent US20150072026A1, “Anti-inflammatory ion and uses thereof” (Yunyuan Li, priority 2013, published 2015).

Key:
psoriasis = assay: Spray of 10 mM NH4Cl solution on psoriasis sites of patient A; type: in vivo, human; details: 10 mM NH4Cl spray once every 2 days
Text: Photos were taken before and after treatments in indicated time points. FIGS. 1, 2, 3, 4 and 5 illustrated the results of the above-identified protocol used in this study.

subcutaneous masses = assay: Topical NH4Cl in skin moisture lotion to treat subcutaneous masses; type: in vivo, human; details: 10 mM in skin moisture lotion, once a day, after 2-3 days
[1] = system: dermatological inflammatory diseases and other inflammatory diseases or syndrome; details: 10 mM, topical or gargle or spray administration
furuncles = assay: Topical NH4Cl in skin moisture lotion to treat furuncles; type: in vivo, human; details: 10 mM in skin moisture lotion, 3 times a day, after 2-3 days
pain of body = assay: Topical NH4Cl in skin moisture lotion to reduce pain of body; type: in vivo, human; details: 10 mM in skin moisture lotion, once a day, after 2-3 days
acnes or furuncles = assay: Topical NH4Cl lotion on face to prevent acnes or furuncles; type: in vivo, human; details: NH4+ 10 mM in skin moisture lotion, topical on face once a week

Structure (SMILES): Cl.N [NH4Cl, ammonium chloride]
- psoriasis on one hand (psoriasis; 2 months, patient A (FIG. 3)): cures psoriasis
- psoriasis on both elbows (psoriasis; 3 months, patient A (FIG. 2)): cures psoriasis
- psoriasis on the back of the body (psoriasis; 3 months, patient A (FIG. 4)): cure psoriasis
- psoriasis on both hands (psoriasis; 3 months, patient A with psoriasis for 3 years (FIG. 1)): cures psoriasis
- appearance of psoriasis on feet and both knees (psoriasis; 4 months, patient A (FIG. 5)): improve appearance of psoriasis
- subcutaneous masses (subcutaneous masses): masses less than 1 cm would be disappeared
- effects for dermatological inflammatory diseases (eczema, acnes, psoriasis, furuncles) and other inflammatory diseases or syndrome [1]: excellent effects
- furuncles (pain, red, nodule) (furuncles): furuncles were cured
- pain of body (pain of body): completed stopped or significantly reduced
- prevention of acnes or furuncles (acnes or furuncles): could prevent acnes or furuncles

Structure (SMILES): CC(=O)O.N [ammonium acetate]
- effects for dermatological inflammatory diseases (eczema, acnes, psoriasis, furuncles) and other inflammatory diseases or syndrome [1]: excellent effects

Structure (SMILES): N.N.O=S(=O)(O)O [ammonium sulfate]
- effects for dermatological inflammatory diseases (eczema, acnes, psoriasis, furuncles) and other inflammatory diseases or syndrome [1]: excellent effects
